Measurements published in PMC8794222 (Photochemistry and photobiology, 2020).
Ends that are not written are not given here.

Assays:
[1] = target: T1, extracellular domain of EGFR protein (Homo sapiens, UniProt P00533); conditions: cited from earlier work
[2] = target: T1, extracellular domain of EGFR protein; assay: SPR analysis on immobilized EGFR extracellular domain; format: binding; conditions: analyte up to 250 μM, HBS-EP+ with 4% DMSO

In the case of “2: EGFR-L1 sequence modified with a glycine spacer, amide terminus (GLARLLT-NH2) [compound 2]”, the “Association and dissociation with EGFR ECD by SPR (in words)” value ([1]; earlier studies) is listed as “fast association and dissociation”.
For CC1=CC(C)=[N+]2C1=C(CCCC(=O)O)c1c(C)cc(C)n1[B-]2(F)F [BODIPY 1], the “Kind of binding to EGFR ECD in SPR sensorgram (in words)” value [2] was “non-specific binding”.
In the case of cyclo(K(N3)larllt) [reference compound], the “Binding to EGFR (in words)” value ([1]; previously shown) is given as “high affinity”.
